Literature values in US7399639B2, “Sensors, and methods of making and using the same” (Massachusetts Institute of Technology, priority 2003, dated 2008).

How the values were obtained:
[1] = reported elsewhere, cited from earlier work
[2] = reported elsewhere; cited from earlier work
[3] = reported elsewhere; cited from earlier work; remark: listed apart in the source
[4] = reported elsewhere; cited from earlier work; remark: listed apart in the source

O=C(O)c1ccccc1-c1c2cc(Cl)c(=O)cc-2oc2c(CNc3ccccc3CN(Cc3ccccn3)Cc3ccccn3)c(O)ccc12 [Zinpyr-4]
quantum efficiency ([1]; metal-free): 0.05
increase in brightness upon Zn(II) binding [1]: 6.7 fold
quantum efficiency of Zn(II) complex [1]: 0.34
pKa of the aniline nitrogen [2]: 7.2
increase in integrated emission in response to the dual-metal buffering system [3]: ~5 fold
metal ion selectivity [4]: Zn(II) and Cd(II) selective
